According to patent US20140235848A1, “METHOD FOR MAKING A PRECURSOR OF L-FUCOSE FROM D-GLUCOSE” (Glycom A/S, priority 2011, published 2014):

Test: Partition studies between organic solvent and water
Format: physicochemical
Settings: for affinity to organic solvents as compared to aqueous media / solubility in organic versus aqueous solvents: conclusion in words from the partition studies
Experimental: 1,2-O-Cyclohexylidene-6-deoxy-β-L-talofuranose (197 mg) was partitioned between water (10 mL) and methylene chloride (10 mL), layers separated and the residual amount of solutions in the separatory funnel were partitioned with extra amount of water (5 mL) and methylene chloride (5 mL). The combined organic phases were evaporated and dried in vacuo (50° C., <1 mbar, 1 hour) to give 140 mg of the title compound. The aqueous solution gave 53 mg after lyophilisation and drying in vacuo (50° C., <1 mbar, 2 hrs). Using the same procedure, partition between ethyl acetate and water provided 127 mg of the title compound from ethyl acetate phase and 70 mg from the aqueous phase.
Analogously, 1,2-O-isopropylidene-6-deoxy-β-L-talofuranose (150 mg) was partitioned between methylene chloride (24 mg) and aqueous phase (126 mg). Partition between ethyl acetate and water furnished 7 mg and 143 mg of the title compound, respectively.

Row | logP (solvent system CH2Cl2-water) | logP (solvent system ethyl acetate-water) | SMILES | affinity to organic solvents as compared to aqueous media | solubility in organic versus aqueous solvents
1 | 0.72 | 0.79 | C[C@H](O)[C@H]1O[C@@H]2OC(C)(C)O[C@@H]2[C@@H]1O [1,2-O-isopropylidene-6-deoxy-β-L-talofuranose] | higher affinity to aqueous medium | highly soluble in aqueous solutions and almost insoluble in organic solvents
2 |  |  | C[C@H](O)[C@H]1O[C@@H]2OC3(CCCCC3)O[C@@H]2[C@@H]1O [6-deoxy-1,2-O-cyclohexylidene-β-L-talofuranose] | higher affinity to organic solvents as compared to aqueous media | much higher solubility of compound 1G in organic solvents as compared to aqueous solvents
